The target in test [1] is T1, GPR17 (Homo sapiens, UniProt Q13304). The test is described as follows: Calcium mobilization functional assay (GPR17 Ca2+ assay). The class given is cell-based. More on the design: host or cells: Flp-In T-REx CHO. The note with it: CHO hGPR17 cells, inhibition of 50 nM MDL29,951, Calcium 5 dye, FLIPR; read-out: Ca2+ assay pIC50 (converted). Put shortly:
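Flp-In T-REx CHO cells stably expressing human GPR17, doxycycline-induced (1 μg/mL, 16-20 h), loaded 60 min with Calcium 5 dye. Inhibition by varying test-compound concentrations of the 50 nM MDL29,951 agonist response was read by fluorescence over time at room temperature. pIC50 came from 4-parameter logistic fitting.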

Test [2] has as its target T1, GPR17. The test is described as follows: cAMP accumulation functional assay (HTRF, Schild analysis). In kind it is cell-based. The arrangement: host or cells: Flp-In T-REx CHO. The note with it: CHO hGPR17 cells, Schild analysis vs MDL29,951, 5 μM forskolin, read-out: cAMP assay pA2 (converted). Put shortly: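 CHO Flp-In T-REx cells with doxycycline-induced human GPR17 were preincubated 30 min at room temperature in HBSS-HEPES pH 7.4 with antagonist. cAMP was then measured by HTRF after 60 min. MDL29,951 pEC50 shifts gave dose ratios, and Schild analysis gave pA2.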

Some results are limits rather than exact numbers.

T1 sequence (Q13304 whole entry): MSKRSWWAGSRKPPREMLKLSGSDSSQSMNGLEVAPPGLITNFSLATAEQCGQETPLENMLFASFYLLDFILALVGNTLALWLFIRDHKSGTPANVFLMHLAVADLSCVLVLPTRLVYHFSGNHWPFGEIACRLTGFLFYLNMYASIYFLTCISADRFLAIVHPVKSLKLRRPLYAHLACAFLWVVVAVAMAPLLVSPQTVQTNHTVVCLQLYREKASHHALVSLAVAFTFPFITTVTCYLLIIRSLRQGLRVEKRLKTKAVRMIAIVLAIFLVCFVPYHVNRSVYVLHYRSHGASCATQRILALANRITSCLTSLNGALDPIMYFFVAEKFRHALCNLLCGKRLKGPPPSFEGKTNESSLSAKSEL

Turning to `COc1cc(CC#N)cnc1NS(=O)(=O)c1c[nH]c2cc(Cl)ccc12` [Compound I-194, 6-chloro-N-[5-(cyanomethyl)-3-methoxypyridin-2-yl]-1H-indole-3-sulfonamide], on GPR17 [1], the IC50 is below 3.16 nM. The Kb on GPR17 [2] is below 3.16 nM.
Consider `O=S(=O)(Nc1cc(OC(F)F)c(Cl)cc1F)c1c[nH]c2cc(Cl)ccc12` [Compound I-195, 6-chloro-N-[4-chloro-5-(difluoromethoxy)-2-fluorophenyl]-1H-indole-3-sulfonamide], for which the IC50 on GPR17 [1] is 3.16 to 31.6 nM. Also, the Kb at GPR17 [2] was below 3.16 nM.
For `O=S(=O)(Nc1cc(F)c(Cl)cc1F)c1coc2cc(Cl)ccc12` [Compound I-198, 6-chloro-N-(4-chloro-2,5-difluorophenyl)-1-benzofuran-3-sulfonamide], the IC50 at GPR17 [1] was 3.16 to 31.6 nM. For the same compound, the Kb on GPR17 [2] was 3.16 to 31.6 nM.
With `O=S(=O)(Nc1nc(F)c(Cl)cc1F)c1c[nH]c2cc(Cl)ccc12` [Compound I-199, 6-chloro-N-(5-chloro-3,6-difluoropyridin-2-yl)-1H-indole-3-sulfonamide], at GPR17 [1], the IC50 was 3.16 to 31.6 nM. For the same compound, at GPR17 [2], the Kb is below 3.16 nM.
The like results for `O=S(=O)(Nc1nc(F)ccc1F)c1c[nH]c2cc(Cl)ccc12` [Compound I-200, 6-chloro-N-(3,6-difluoropyridin-2-yl)-1H-indole-3-sulfonamide] were, in that order, 3.16 to 31.6 nM and 3.16 to 31.6 nM.
The like results for `O=S(=O)(Nc1ccc2nonc2c1)c1c[nH]c2cc(Cl)ccc12` [Compound I-201, N-(2,1,3-benzoxadiazol-5-yl)-6-chloro-1H-indole-3-sulfonamide] were, in that order, above 31.6 nM and below 3.16 nM.
The like results for `O=S(=O)(Nc1ncc(Cl)cc1F)c1c[nH]c2cc(Cl)ccc12` [Compound I-202, 6-chloro-N-(5-chloro-3-fluoropyridin-2-yl)-1H-indole-3-sulfonamide] were, in that order, below 3.16 nM and 3.16 to 31.6 nM.
`O=S(=O)(Nc1cc(F)c(F)cc1F)c1c[nH]c2cc(Cl)ccc12` [Compound I-203, 6-chloro-N-(2,4,5-trifluorophenyl)-1H-indole-3-sulfonamide]: on GPR17 [1], the IC50 was 3.16 to 31.6 nM. On GPR17 [2], the Kb was below 3.16 nM.
The like results for `O=S(=O)(Nc1cc(F)c(Cl)cc1F)c1c[nH]c2cc(Cl)ccc12` [Compound I-204, 6-chloro-N-(4-chloro-2,5-difluorophenyl)-1H-indole-3-sulfonamide] were, in that order, 3.16 to 31.6 nM and below 3.16 nM.
The like results for `N#CCc1ccc(NS(=O)(=O)c2c[nH]c3cc(Cl)ccc23)c(F)c1` [Compound I-206, 6-chloro-N-[4-(cyanomethyl)-2-fluorophenyl]-1H-indole-3-sulfonamide] were, in that order, 3.16 to 31.6 nM and below 3.16 nM.
Regarding `COc1cc(Cl)c(F)cc1NS(=O)(=O)c1c[nH]c2cc(Cl)ccc12` [Compound I-208, 6-chloro-N-(4-chloro-5-fluoro-2-methoxyphenyl)-1H-indole-3-sulfonamide], at GPR17 [1], the IC50 is above 31.6 nM. For the same compound, the Kb on GPR17 [2] was 3.16 to 31.6 nM.
The like results for `C#Cc1ccc(NS(=O)(=O)c2c[nH]c3cc(Cl)ccc23)c(F)c1` [Compound I-210, 6-chloro-N-(4-ethynyl-2-fluorophenyl)-1H-indole-3-sulfonamide] were, in that order, 3.16 to 31.6 nM and below 3.16 nM.
The like results for `O=S(=O)(Nc1ccc(Br)cc1F)c1c[nH]c2cc(Cl)ccc12` [Compound I-212, N-(4-bromo-2-fluorophenyl)-6-chloro-1H-indole-3-sulfonamide] were, in that order, 3.16 to 31.6 nM and below 3.16 nM.
The like results for `O=S(=O)(Nc1cc(F)c(Br)cc1F)c1c[nH]c2cc(Cl)ccc12` [Compound I-213, N-(4-bromo-2,5-difluorophenyl)-6-chloro-1H-indole-3-sulfonamide] were, in that order, below 3.16 nM and below 3.16 nM.
Take `O=S(=O)(Nc1ccc(S(F)(F)(F)(F)F)cc1F)c1c[nH]c2cc(Cl)ccc12` [Compound I-215, 6-chloro-N-[2-fluoro-4-(pentafluoro-lambda-6-sulfanyl)phenyl]-1H-indole-3-sulfonamide]: on GPR17 [1], the IC50 is 3.16 to 31.6 nM. In addition, the Kb at GPR17 [2] is 3.16 to 31.6 nM.
Turning to `O=S(=O)(Nc1cccc2nonc12)c1c[nH]c2cc(Cl)ccc12` [Compound I-216, N-(2,1,3-benzoxadiazol-4-yl)-6-chloro-1H-indole-3-sulfonamide], at GPR17 [1], the IC50 is 3.16 to 31.6 nM. For the same compound, the Kb at GPR17 [2] was 3.16 to 31.6 nM.
Take `CC(=O)c1ccc(NS(=O)(=O)c2c[nH]c3cc(Cl)ccc23)c(F)c1` [Compound I-219, N-(4-acetyl-2-fluorophenyl)-6-chloro-1H-indole-3-sulfonamide]: the IC50 on GPR17 [1] is 3.16 to 31.6 nM. For the same compound, the Kb on GPR17 [2] was 3.16 to 31.6 nM.
On to `N#Cc1ccc(NS(=O)(=O)c2c[nH]c3cc(OCC4CC4)ccc23)c(F)c1` [Compound I-220, N-(4-cyano-2-fluorophenyl)-6-(cyclopropylmethoxy)-1H-indole-3-sulfonamide], for which the IC50 on GPR17 [1] is 3.16 to 31.6 nM. Further, at GPR17 [2], the Kb is 3.16 to 31.6 nM.
On to `COc1ccc2c(S(=O)(=O)Nc3cc(F)c(Cl)cc3F)c[nH]c2c1` [Compound I-221, N-(4-chloro-2,5-difluorophenyl)-6-methoxy-1H-indole-3-sulfonamide], for which the IC50 at GPR17 [1] was 3.16 to 31.6 nM. In addition, the Kb on GPR17 [2] was 3.16 to 31.6 nM.
Turning to `O=S(=O)(Nc1cc(F)c(F)cc1F)c1c[nH]c2nc(Cl)ccc12` [Compound I-223, 6-chloro-N-(2,4,5-trifluorophenyl)-1H-pyrrolo[2,3-b]pyridine-3-sulfonamide], the IC50 on GPR17 [1] is 3.16 to 31.6 nM. Besides, the Kb on GPR17 [2] was above 31.6 nM.
The like results for `O=S(=O)(Nc1ccc(Cl)cc1F)c1c[nH]c2nc(Cl)ccc12` [Compound I-224, 6-chloro-N-(4-chloro-2-fluorophenyl)-1H-pyrrolo[2,3-b]pyridine-3-sulfonamide] were, in that order, 3.16 to 31.6 nM and 3.16 to 31.6 nM.
The like results for `O=S(=O)(Nc1cc2c(cc1F)OC(F)(F)O2)c1c[nH]c2nc(Cl)ccc12` [Compound I-225, 6-chloro-N-(2,2,6-trifluoro-1,3-benzodioxol-5-yl)-1H-pyrrolo[2,3-b]pyridine-3-sulfonamide] were, in that order, above 31.6 nM and 3.16 to 31.6 nM.
The like results for `O=S(=O)(Nc1ccc(F)c2nsnc12)c1c[nH]c2nc(Cl)ccc12` [Compound I-226, 6-chloro-N-(7-fluoro-2,1,3-benzothiadiazol-4-yl)-1H-pyrrolo[2,3-b]pyridine-3-sulfonamide] were, in that order, above 31.6 nM and above 31.6 nM.
Regarding `O=S(=O)(Nc1cc(F)c(Cl)cc1F)c1c[nH]c2nc(Cl)ccc12` [Compound I-227, 6-chloro-N-(4-chloro-2,5-difluorophenyl)-1H-pyrrolo[2,3-b]pyridine-3-sulfonamide], the IC50 on GPR17 [1] was below 3.16 nM. The Kb at GPR17 [2] is below 3.16 nM.
Consider `N#Cc1ccc(NS(=O)(=O)c2c[nH]c3cc(-c4cccnc4)ccc23)c(F)c1` [Compound I-229, N-(4-cyano-2-fluorophenyl)-6-(pyridin-3-yl)-1H-indole-3-sulfonamide], for which the IC50 on GPR17 [1] was 3.16 to 31.6 nM. In addition, the Kb on GPR17 [2] is 3.16 to 31.6 nM.
Regarding `N#Cc1ccc(NS(=O)(=O)c2c[nH]c3cc(-c4ccsc4)ccc23)c(F)c1` [Compound I-230, N-(4-cyano-2-fluorophenyl)-6-(thiophen-3-yl)-1H-indole-3-sulfonamide], the IC50 at GPR17 [1] was 3.16 to 31.6 nM. At GPR17 [2], the Kb was 3.16 to 31.6 nM.
For `N#Cc1ccc(NS(=O)(=O)c2c[nH]c3cc(-c4ccccc4)ccc23)c(F)c1` [Compound I-233, N-(4-cyano-2-fluorophenyl)-6-phenyl-1H-indole-3-sulfonamide], on GPR17 [1], the IC50 was 3.16 to 31.6 nM. Besides, the Kb at GPR17 [2] was above 31.6 nM.
The like results for `N#Cc1ccc(NS(=O)(=O)c2c[nH]c3cc(-c4cccs4)ccc23)c(F)c1` [Compound I-235, N-(4-cyano-2-fluorophenyl)-6-(thiophen-2-yl)-1H-indole-3-sulfonamide] were, in that order, 3.16 to 31.6 nM and below 3.16 nM.
The like results for `O=S(=O)(Nc1cc(F)c(Cl)cc1F)c1c[nH]c2cc(-c3ccsc3)ccc12` [Compound I-236, N-(4-chloro-2,5-difluorophenyl)-6-(thiophen-3-yl)-1H-indole-3-sulfonamide] were, in that order, above 31.6 nM and above 31.6 nM.
The like results for `C[S+]([O-])c1ccc2c(S(=O)(=O)Nc3ccc(C#N)cc3)c[nH]c2c1` (stereo not drawn) [Compound I-237, N-(4-cyanophenyl)-6-(methylsulfinyl)-1H-indole-3-sulfonamide] were, in that order, above 31.6 nM and above 31.6 nM.
For `CS(=O)(=O)c1ccc2c(S(=O)(=O)Nc3cc4c(cc3F)OC(F)(F)O4)c[nH]c2c1` [Compound I-238, 6-(methylsulfonyl)-N-(2,2,6-trifluoro-1,3-benzodioxol-5-yl)-1H-indole-3-sulfonamide], the IC50 at GPR17 [1] was 3.16 to 31.6 nM. The Kb at GPR17 [2] was 3.16 to 31.6 nM.
With `CS(=O)(=O)c1ccc2c(S(=O)(=O)Nc3cc(F)c(F)cc3F)c[nH]c2c1` [Compound I-239, 6-methylsulfonyl-N-(2,4,5-trifluorophenyl)-1H-indole-3-sulfonamide], on GPR17 [1], the IC50 is above 31.6 nM. Also, the Kb on GPR17 [2] was above 31.6 nM.
For `CS(=O)(=O)c1ccc2c(S(=O)(=O)Nc3cccc4c3OC(F)(F)O4)c[nH]c2c1` [Compound I-240, N-(2,2-difluoro-1,3-benzodioxol-4-yl)-6-methylsulfonyl-1H-indole-3-sulfonamide], the IC50 at GPR17 [1] is above 31.6 nM. Moreover, on GPR17 [2], the Kb was above 31.6 nM.

(Values after patent US12071404B2, “Aza (indole)-, benzothiophene-, and benzofuran-3-sulfonamides” (UCB Pharma GmbH, priority 2016, dated 2024).)
